Source: ChEMBL document CHEMBL1139716, “Naphtho[2,3-b][1,4]-thiazine-5,10-diones and 3-substituted-1,4-dioxo-1,4-dihydronaphthalen-2-yl-thioalkanoate derivatives: synthesis and biological evaluation as potential antibacterial and antifungal agents” (Bioorg Med Chem Lett, 2006)
Converted amounts (≈) assume the structure as drawn.

How the values were obtained:
Staphylococcus aureus = assay: Antibacterial activity against Staphylococcus aureus by broth microdilution technique; format: functional, organism-based
Enterococcus faecalis = assay: Antibacterial activity against Streptococcus faecalis by broth microdilution technique; format: functional, organism-based
Klebsiella pneumoniae = assay: Antibacterial activity against Klebsiella pneumoniae by broth microdilution technique; format: functional, organism-based
Escherichia coli = assay: Antibacterial activity against Escherichia coli by broth microdilution technique; format: functional, organism-based
Pseudomonas aeruginosa = assay: Antibacterial activity against Pseudomonas aeruginosa by broth microdilution technique; format: functional, organism-based
Candida albicans = assay: Antifungal activity against Candida albicans by broth microdilution technique; format: functional, organism-based
Candida parapsilosis = assay: Antifungal activity against Candida parapsilosis ATCC 22019 by broth microdilution technique; format: functional, organism-based; conditions: Lodderomyces parapsilosis
Cryptococcus neoformans = assay: Antifungal activity against Cryptococcus neoformans by broth microdilution technique; format: functional, organism-based
Aspergillus fumigatus = assay: Antifungal activity against Aspergillus fumigatus by broth microdilution technique; format: functional, organism-based
Sporothrix schenckii = assay: Antifungal activity against Sporothrix schenckii by broth microdilution technique; format: functional, organism-based
Trichophyton benhamiae = assay: Antifungal activity against Trichophyton mentagrophytes by broth microdilution technique; format: functional, organism-based, Arthroderma benhamiae
[1] = Staphylococcus aureus, read-out: IC50
[2] = Enterococcus faecalis, read-out: IC50
[3] = Klebsiella pneumoniae, read-out: IC50
[4] = Escherichia coli, read-out: IC50
[5] = Pseudomonas aeruginosa, read-out: IC50

Row | Molecule | MIC (Staphylococcus aureus; Staphylococcus aureus) [µg/mL] | IC50 (Staphylococcus aureus; [1]) [µg/mL] | MIC (Enterococcus faecalis; Enterococcus faecalis) [µg/mL] | IC50 (Enterococcus faecalis; [2]) [µg/mL] | MIC (Klebsiella pneumoniae; Klebsiella pneumoniae) [µg/mL] | IC50 (Klebsiella pneumoniae; [3]) [µg/mL] | MIC (Escherichia coli; Escherichia coli) [µg/mL] | IC50 (Escherichia coli; [4]) [µg/mL] | MIC (Pseudomonas aeruginosa; Pseudomonas aeruginosa) [µg/mL] | IC50 (Pseudomonas aeruginosa; [5]) [µg/mL] | MIC (Candida albicans) [µg/mL] | MIC (Candida parapsilosis) [µg/mL] | IC50 (Cryptococcus neoformans) [µg/mL] | MIC (Cryptococcus neoformans) [µg/mL] | IC50 (Aspergillus fumigatus) [µg/mL] | MIC (Aspergillus fumigatus) [µg/mL] | IC50 (Sporothrix schenckii) [µg/mL] | MIC (Sporothrix schenckii) [µg/mL] | IC50 (Trichophyton benhamiae) [µg/mL] | MIC (Trichophyton benhamiae) [µg/mL] | other results
1 | CCOC(=O)CSC1=C(NCC(C)C)C(=O)c2ccccc2C1=O | 25 (≈ 72 µM) | 21.6 (≈ 62.1 µM) | 25 (≈ 72 µM) | 19.5 (≈ 56.2 µM) | 50 (≈ 144 µM) | 38.5 (≈ 111 µM) | 50 (≈ 144 µM) | 39.3 (≈ 113 µM) | 50 (≈ 144 µM) | 42.5 (≈ 122 µM) | > 50 | > 50 | > 50 | > 50 | > 50 | > 50 | 22.8 (≈ 65.7 µM) | 50 (≈ 144 µM) | 9.8 (≈ 28.2 µM) | 12.5 (≈ 36 µM) | IC50 (Candida albicans): > 50 µg/mL; IC50 (Candida parapsilosis): > 50 µg/mL
2 | GENTAMICIN [listing 1 of 2 here] |  |  |  |  |  |  |  |  |  |  |  |  |  |  |  |  |  |  |  |  | MIC (Staphylococcus aureus): 6.25 µg/mL; MIC (Enterococcus faecalis): 0.78 µg/mL; MIC (Klebsiella pneumoniae): 0.78 µg/mL; MIC (Escherichia coli): 0.18 µg/mL; MIC (Pseudomonas aeruginosa): 25 µg/mL
3 | CCOC(=O)C(C)SC1=C(NCCc2ccc(OC)c(OC)c2)C(=O)c2ccccc2C1=O (configuration not stated) | 12.5 (≈ 26.6 µM) | 9.52 (≈ 20.3 µM) | > 50 | > 50 | 50 (≈ 106 µM) | 42.5 (≈ 90.6 µM) | 50 (≈ 106 µM) | 44.3 (≈ 94.3 µM) | 50 (≈ 106 µM) | 46.2 (≈ 98.5 µM) | > 50 | > 50 | > 50 | > 50 | > 50 | > 50 | > 50 | > 50 | 14 (≈ 29.8 µM) | 25 (≈ 53.2 µM) | IC50 (Candida albicans): > 50 µg/mL; IC50 (Candida parapsilosis): > 50 µg/mL
4 | CCOC(=O)CSC1=C(Nc2ccccc2)C(=O)c2ccccc2C1=O | 12.5 (≈ 34 µM) | 11.8 (≈ 32.2 µM) | 25 (≈ 68 µM) | 18.6 (≈ 50.7 µM) | 12.5 (≈ 34 µM) | 9.24 (≈ 25.1 µM) | 6.25 (≈ 17 µM) | 4.32 (≈ 11.8 µM) | 25 (≈ 68 µM) | 22.8 (≈ 62.1 µM) | > 50 | > 50 | > 50 | > 50 | > 50 | > 50 | 46.7 (≈ 127 µM) | 50 (≈ 136 µM) | 23 (≈ 62.6 µM) | 25 (≈ 68 µM) | IC50 (Candida albicans): > 50 µg/mL; IC50 (Candida parapsilosis): > 50 µg/mL
5 | CCOC(=O)C(C)SC1=C(NN)C(=O)c2ccccc2C1=O (configuration not stated) | 6.25 (≈ 19.5 µM) | 5.65 (≈ 17.6 µM) | 25 (≈ 78 µM) | 22.3 (≈ 69.5 µM) | 6.25 (≈ 19.5 µM) | 5.28 (≈ 16.5 µM) | 6.25 (≈ 19.5 µM) | 5.2 (≈ 16.2 µM) | 6.25 (≈ 19.5 µM) | 4.62 (≈ 14.4 µM) | 50 (≈ 156 µM) | 25 (≈ 78 µM) | 13.3 (≈ 41.6 µM) | 25 (≈ 78 µM) | 22.4 (≈ 69.8 µM) | 25 (≈ 78 µM) | 22 (≈ 68.7 µM) | 25 (≈ 78 µM) | 4.5 (≈ 14 µM) | 6.25 (≈ 19.5 µM) | IC50 (Candida albicans): 24.2 µg/mL (≈ 75.7 µM); IC50 (Candida parapsilosis): 17.3 µg/mL (≈ 54.1 µM)
6 | CCOC(=O)C(C)SC1=C(N)C(=O)c2ccccc2C1=O (configuration not stated) | 6.25 (≈ 20.5 µM) | 6.16 (≈ 20.2 µM) | 12.5 (≈ 40.9 µM) | 8.54 (≈ 28 µM) | 12.5 (≈ 40.9 µM) | 11.7 (≈ 38.3 µM) | 1.56 (≈ 5.11 µM) | 1.18 (≈ 3.86 µM) | 50 (≈ 164 µM) | 34.5 (≈ 113 µM) | 25 (≈ 81.9 µM) | 25 (≈ 81.9 µM) | 12 (≈ 39.3 µM) | 12.5 (≈ 40.9 µM) | 16.6 (≈ 54.3 µM) | 25 (≈ 81.9 µM) | 17.9 (≈ 58.7 µM) | 25 (≈ 81.9 µM) | > 50 | > 50 | IC50 (Candida albicans): 24.2 µg/mL (≈ 79.3 µM); IC50 (Candida parapsilosis): 21.2 µg/mL (≈ 69.6 µM)
7 | GENTAMICIN [listing 2 of 2 here] |  |  |  |  |  |  |  |  |  |  |  |  |  |  |  |  |  |  |  |  | IC50 (Staphylococcus aureus): 4.46 µg/mL; IC50 (Enterococcus faecalis): 0.62 µg/mL; IC50 (Klebsiella pneumoniae): 0.34 µg/mL; IC50 (Escherichia coli): 0.11 µg/mL; IC50 (Pseudomonas aeruginosa): 24.64 µg/mL
8 | OC(Cn1cncn1)(Cn1cncn1)c1ccc(F)cc1F [FLUCONAZOLE] |  |  |  |  |  |  |  |  |  |  | 0.5 (≈ 1.63 µM) | 1 (≈ 3.27 µM) | 0.46 (≈ 1.5 µM) | 1 (≈ 3.27 µM) | 1.06 (≈ 3.46 µM) | 2 (≈ 6.53 µM) | 1.45 (≈ 4.73 µM) | 2 (≈ 6.53 µM) | 0.63 (≈ 2.06 µM) | 1 (≈ 3.27 µM) | 
9 | CCOC(=O)CSC1=C(NC(C)C)C(=O)c2ccccc2C1=O | 12.5 (≈ 37.5 µM) | 18.5 (≈ 55.4 µM) | 25 (≈ 75 µM) | 20.6 (≈ 61.9 µM) | 50 (≈ 150 µM) | 46.9 (≈ 141 µM) | 25 (≈ 75 µM) | 25 (≈ 74.9 µM) | 50 (≈ 150 µM) | 35.9 (≈ 108 µM) | 50 (≈ 150 µM) | 25 (≈ 75 µM) | 11.3 (≈ 33.8 µM) | 12.5 (≈ 37.5 µM) | 44.9 (≈ 135 µM) | 50 (≈ 150 µM) | 38.6 (≈ 116 µM) | 50 (≈ 150 µM) | 9.8 (≈ 29.4 µM) | 12.5 (≈ 37.5 µM) | IC50 (Candida albicans): 44.3 µg/mL (≈ 133 µM); IC50 (Candida parapsilosis): 23.2 µg/mL (≈ 69.7 µM)
